From US12545653B2, “Compound as PPAR agonist and application thereof” (USA Elixiria Biotech Inc., priority 2019, dated 2026)
“And” between values parts separate entries of the source, which are not always exact repeats. Identical values can stand only once.

Key:
klotho gene = assay: In vivo brain transcriptional activity of klotho gene (RT-PCR of brain mRNA); set-up: species or system mouse; details: 10 mg/kg body weight/day tail vein; for mRNA level of klotho gene in the brain of the mouse relative to vehicle control group: after 10 days of continuous injection; for fold induction at 10 mg/kg: Mus musculus, iv, 720 h, after 30 days of continuous injection, read-out: mRNA level of klotho gene in the brain of the mouse relative to vehicle control group
Protocol: To verify this hypothesis, adult male Kunming mice were used in the experiments. […] The injection volume is 8 ml/kg body weight. Dimethyl sulfoxide (DMSO) was used as a vehicle control of the compounds. […] The RNA was then reverse-transcribed to the cDNA, and quantified by SYBR Green fluorescence quantitative PCR kit (HaiGene) and a quantitative PCR system (Bio-Rad Min-Opticon Type 2) were used for real-time fluorescent quantitative polymerase chain reaction (RT-PCR). The mouse gene primers were design as follows: • KLOTHO-forward 5′-[…]-3′; • LOTHO-reverse 5′-[…]-3′; • GAPDH-forward 5′-[…]-3′; • GAPDH-reverse 5′-[…]-3′.
Data analysis was performed using the 2^−ΔΔct method. Semi-quantitative values of gene expression were then normalized by the control mean.

PPARγ = biological target: T1, PPARγ (Homo sapiens, UniProt P37231); assay: In vitro transcriptional activity of PPARγ gene (PPRE-luciferase reporter, HEK 293 T cells); type: cell-based; details: HEK 293 T cells transfected with PPARγ expression and PPRE-luc plasmids, 21 hours; read-out: EC50 of PPARγ gene activation
T1 construct: expressed in transfected cells; host or cells: HEK 293 T cells
T1 sequence (P37231 1-505): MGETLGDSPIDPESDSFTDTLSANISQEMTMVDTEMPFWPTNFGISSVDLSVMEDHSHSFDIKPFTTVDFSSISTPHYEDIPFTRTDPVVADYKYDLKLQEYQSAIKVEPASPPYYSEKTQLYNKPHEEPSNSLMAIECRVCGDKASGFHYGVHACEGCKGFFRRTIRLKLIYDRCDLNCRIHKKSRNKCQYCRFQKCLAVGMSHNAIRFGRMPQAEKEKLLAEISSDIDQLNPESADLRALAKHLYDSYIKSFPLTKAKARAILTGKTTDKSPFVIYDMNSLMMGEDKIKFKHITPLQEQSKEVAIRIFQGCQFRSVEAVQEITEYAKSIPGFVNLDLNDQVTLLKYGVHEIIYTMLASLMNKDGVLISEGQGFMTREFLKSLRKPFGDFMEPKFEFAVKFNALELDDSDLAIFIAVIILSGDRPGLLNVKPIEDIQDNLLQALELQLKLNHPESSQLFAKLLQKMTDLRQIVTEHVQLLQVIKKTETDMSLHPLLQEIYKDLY
From the text: In this experiment, the PPARγ gene was used as target gene to detect the in vitro transcription activity of the compounds. The compounds of interest were detected was first dissolved with dimethyl sulfoxide (DMSO). […] First two plasmids were constructed: PPARγ protein expression plasmid and luciferase reporter plasmid. They are both from the lentiviral plasmid pLV-CMVIE-ZsGreen-Puro, whose DNA sequence contains the cytomegalovirus immediate early (CMVie) promoter, ZsGreen and Puro dual reporter. The PPARγ expression plasmid pLV-CMVIE-PPAR[…]-ZsGreen-Puro was constructed by cloning full-length coding sequences of the pertinent receptors into pHBLV-CMVIE-ZsGreen-Puro vector. To construct the luciferase (luc) reporter plasmid pLV-PPRE-luc-ZsGreen-Puro, the CMVie promoter in plasmid pHBLV-CMVIE-ZsGreenPuro was first replaced by a peroxisome proliferator responsive element (PPRE) containing fragments comprised the nucleotide sequence 50-[…], repeated four times in tandem, to generate a new plasmid, at a multiple cloning site of which the luc gene was then inserted. […] The compounds used for screening are representatives for compounds listed in Table 2, and Tables 3 of the present invention. […] Cells were distributed in 10-cm tissue culture plates at a density of 5.5 million cells per plate, and then transfected with the luciferase reporter plasmid (6 nanogram/plate) and the PPARγ expression plasmid (18 nanogram/plate). Cells were cultured for 6 hours. […] Then the cells were distributed in 96-well plates at a density of 20,000 cells per well. After incubation for 6 h, compounds or control with different concentration were placed into each well, resulting in the finical concentration of […] with each concentration in triplicate. Twenty-one hours later, promoter activation was detected by the addition of SteadyLite (PerkinElmer, Waltham, MA) and GloMax 96 Microplate Luminometer (Promega, Madison, WI). The amount of Luminometer emitted from each well is positively correlated with the expression of PPARγ gene. A three-parameter Sigmoid function curve was used to fit the obtained data. The abscissa represents the logarithmic value of the concentration, and the ordinate represents the percentage of PPARγ gene activation relative to those of the control. […] In Statistical analysis, the coefficient of variation is used to measure the robustness and repeatability of the experiment. […] The difference is significant with P<0.05. EC50 is a parameter of its activity.

klotho gene promoter = assay: In vitro transcriptional activity of klotho gene (KL-Luc-3 luciferase cell line); type: cell-based; details: 16 h, KL-Luc-3 cells, 16 hours incubation
From the text: The activities of these carbonyl-containing cyclic compounds are indicated by the increased expression of klotho gene. […] The present invention retains the DNA fragment of the klotho gene promoter, but replaces the DNA sequence of the coding region of the klotho gene with those of luciferase, so that the degree of activation of the klotho gene promoter and the expression of the klotho gene will be sensitively determined by detecting the luciferase luminescence signal.
Klotho is an important downstream gene of PPARγ pathway. The following experiments tested the properties of the compounds in Table 2 and 3 to activate the klotho gene in vitro. First, a stable cell line, KL-Luc, was constructed. The klotho gene carried by the cell line retained the DNA sequence of klotho gene promoter, but the coding sequence of the klotho gene was replaced with luciferase. KL-Luc fragment includes a promoter sequence of the klotho gene (a DNA region of 18,000 base pairs in length upstream of the transcription start site of the gene) and a luciferase-encoding sequence. To construct the KL-Luc sequence containing lentiviral vector, the KL-Luc fragment was cloned into the pDONR vector using BP recombinase, so that the target fragment had attL recombination sites on both sides. Then the KL-Luc fragment was transferred from the pDONR vector to a lentiviral vector (without exogenous promoter) pLenti6/BLOCK-IT-DEST. The constructed lentiviral vector of the target fragment was then transfected into HEK293T cells, and then the KL-Luc gene lentiviral expression vector and the […] were co-transfected into HEK293T cells to perform lentiviral packaging. The virus was harvested, and virus titer was calculated. And the lentivirus was used to infect target cells. The stable strains were screened by adding drugs. Finally, monoclonal cell lines were selected from polyclonal cells by cell cloning. The effective luciferase expression of each monoclonal cell line was determined by quantitative polymerase chain reaction (qPCR). The inventors chose a third monoclonal cell line (KL-Luc-3) to continue the compound screening. The compounds of interest were the compounds in Table 2 and 3. At the same time, rosiglitazone and pioglitazone were used as a control. KL-Luc-3 cells were divided into 96-well plates at 5000 cells in 80 microL per well, cultured in a 37° C. carbon dioxide incubator with serum-free Duchenne's Modified Eagle's Medium (DMEM) for 6 hours, and then the compounds were added to a final concentration of 0, 0.1, 0.3, 1, 3, 10, 30 micromole/L, with each concentration in triplicate. After 16 hours of incubation, the SteadyLite (PerkinElmer, Waltham, MA) and the GloMax Microplate Luminometer (Promega, USA) were used for quantitation of luciferase activity. The amount of luminescence emitted from each well is positively related to the transcriptional activity of the klotho promoter. A three-parameter Sigmoid function curve was used to fit the obtained data. The abscissa represents the logarithmic value of the concentration, and the ordinate represents the percentage of the activity relative to those of the control. […] In Statistical analysis, the coefficient of variation is used to measure the robustness and repeatability of the experiment. […] The difference is significant with P<0.05. EC50 is a parameter of its activity. The lower the EC50 value, the higher the activity of corresponding compound.

db−/db− mice = assay: Diabetic peripheral neuropathy model, Von Frey threshold, sciatic nerve ROS and MDA; type: in vivo, mouse; details: in food 10 mg/kg body weight/day (pregabalin 30 mg/kg body weight/day); for level of MDA in the sciatic nerve after 10 week treatment / level of mitochondrial ROS in the sciatic nerve after 10 week treatment: compared with healthy control group; for mechanical pain threshold after 10 week treatment: compared with normal control group
Protocol: Male 5-6 week-old male db^−/db^− mice were used in the experiment, and their normoglycemic heterozygous littermates were used as controls. db^−/db^− is a commonly used type 2 diabetes animal model. The compounds was dissolved in DMSO and mixed into food pellets. The animals were given ad libitum access to the pellets, beginning from 8 to 9 weeks of age for 10 weeks. […] The method for detecting mice hindlimb hypersensitivity is performed using Von Frey filaments. […] The difference is significant with P<0.05. The increase of mitochondrial reactive oxygen species (ROS) in the sciatic nerve of mice, which in turn leads to the increase of intracellular malondialdehyde (MDA), is the etiology of this type of neuropathic pain. The efficacy of compound to treat the root cause of the disease was evaluated by measurement of the levels of MDA and mitochondrial ROS from the sciatic nerves.

APP/PS1 transgenic mice = assay: Alzheimer's disease model, eight-arm radial water maze and brain gene expression; type: in vivo, mouse; details: 30 days in food, 10 mg/kg body weight/day (donepezil 3 mg/kg body weight/day), 5 on the first day
From the text: A common indicator used in academia in memory and dementia experiments is the number of errors in the water maze (reference memory). More errors mean poorer memory. On the last 3 days of dosing, eight-arm radial water maze was used by experimenters who were blind to drug treatment. As a classic experimental instrument, to detect slight deficits in learning and memory, the eight-arm water maze is more sensitive than not only Morris maze, but also Six-arm radial water maze. For details, see reference 8: Alamed J et al. Two-day radial-arm water maze learning and memory task; robust resolution of amyloid-related memory deficits in transgenic mice [J]. […] This experiment uses an eight-arm water maze built in accordance with the above literature. The eight-arm water maze is placed in a basin with an interior diameter of 102 cm. Each arm measures 30 cm long, 14.5 cm wide, and 40 cm high. Escape platform is located at the end of one of the arms. In the reference memory version of the task described here, the goal arm is held constant for all trials, with a different start arm on successive trials. On day one, mice received 12 trials, with trials alternating between visible and hidden platform. On day 2 and 3, mice received 12 additional trials but the platform was kept hidden throughout the trials. Entry into an incorrect arm was scored as a spatial reference error. Errors were averaged into three trial blocks, with four blocks per day, e.g., the first block (the 1st to 3rd trial), the second block (the 4th to 6th trial), and so on. […]. The line charts were made with the number of blocks as the abscissa and the average of the number of errors as the ordinate. At the end of the experiments, the cerebral cortex and hippocampus of the mice were removed, RNA was extracted, and the expression of many genes was analyzed by semi-quantitative RT-PCR. […] The difference is significant with P<0.05.

[1] = tested on: dIoN-CCI rat model of trigeminal neuropathic pain; assay: Trigeminal neuralgia model (dIoN-CCI), Von Frey mechanical threshold; details: dIoN-CCI rats
From the text: A common rat model of trigeminal neuralgia is a chronic compression injury model (CCI) caused by ligation of the infraorbital nerve (IoN). In the present study, an improved rat model of trigeminal neuropathic pain was used, in which CCI is induced by ligation of distal segment of IoN (dIoN). Wild type male Sprague-Dawley rats with body weight 250 to 260 grams underwent dIoN-CCI surgery experiments. The mechanical threshold of pain in rats without surgery experiments will exceed 6 grams. If the dIoN-CCI surgery is successful, it will reduce the pain threshold to less than 2 grams.
The mice were divided into the following 11 groups with 4 to 5 mice in each group. The formulation used for transdermal treatment is cream. […] The compound administration of each group starts on the third day after successful dIoN-CCI surgery. […] The method for detecting rat facial hypersensitivity is performed using Von Frey filaments. An analysis of variance (ANOVA) and Dunnett post hoc comparison test are used to compare the significance of the differences between different groups of data. The difference is significant with P<0.05.

Row | Structure (SMILES) | mRNA level of klotho gene in the brain of the mouse relative to vehicle control group (klotho gene) | fold induction at 10 mg/kg (klotho gene) | EC50 (PPARγ) | further results
1 | CCc1ccc(CCCCc2ccc3c(c2)NC(=O)CC3)cc1 [ELB00702, 7-(4-(4-ethylphenyl)butyl)-3,4-dihydroquinolin-2(1H)-one] | more than twice | > 5 | < 6.4 µM and 3.1 µM | –
2 | CCc1ccc(CCCCc2ccc3c(c2)OCCC(=O)N3)cc1 [ELB00827, 8-(4-(4-ethylphenyl)butyl)-2,3-dihydrobenzo[b][1,4]oxazepin-4(5H)-one] | more than twice | > 5 | < 6.4 µM | EC50 (klotho gene promoter): < 9.7 µM
3 | CCc1ccc(CC/C=C/c2ccc3c(c2)NC(=O)CO3)cc1 [ELB00993, (E)-6-(4-(4-ethylphenyl)but-1-en-1-yl)-2H-benzo[b][1,4]oxazin-3(4H)-one] | more than twice | > 5 | < 6.4 µM | –
4 | CCc1ccc(CC/C=C/c2ccc3c(c2)C(=O)CCO3)cc1 [ELB001080, (E)-6-(4-(4-ethylphenyl)but-1-en-1-yl)chroman-4-one] | – | – | < 6.4 µM | level of MDA in the sciatic nerve after 10 week treatment (db−/db− mice): reduced; level of mitochondrial ROS in the sciatic nerve after 10 week treatment (db−/db− mice): reduced; mechanical pain threshold after 10 week treatment (db−/db− mice): significantly improved; number of errors in water maze on the third day (APP/PS1 transgenic mice): comparable to that of ELB00824
5 | CCc1ccc(C/C=C/c2cccc(CC3NCC(=O)N3)c2)cc1 (centres unmarked) [ELB001090, (E)-2-(3-(3-(4-ethylphenyl)prop-1-en-1-yl)benzyl)imidazolidin-4-one] | more than twice | – | < 6.4 µM and 3.9 µM | EC50 (klotho gene promoter): < 9.7 µM
6 | NCC1(CC(=O)O)CCCCC1 [gabapentin, reference compound] | – | – | – | side effect at the time of administration [1]: drowsiness; duration of the anti-allodynic effect ([1]; oral gabapentin group (1 mg/kg body weight)): 1 h
7 | CC(C)C[C@H](CN)CC(=O)O [pregabalin, reference compound] | – | – | – | level of MDA in the sciatic nerve after 10 week treatment (db−/db− mice): significantly higher; level of mitochondrial ROS in the sciatic nerve after 10 week treatment (db−/db− mice): significantly higher; mechanical pain threshold after 10 week treatment (db−/db− mice): no difference
